{"source": "patent EP4772500A1", "about": "“NOVEL ISOXAZOLE COMPOUND AS TM4SF5-SPECIFIC INHIBITOR AND USE THEREOF” (Seoul National University R&DB Foundation, priority 2023, dated 2025)", "test_system": "SNU449-TM4SF5 cells", "assay": "Western blotting of NK cell stimulatory ligands", "type": "cell-based, human", "settings": "SNU449-TM4SF5, given concentration, 24 hours (FIG. 13c)", "protocol": "Cell extracts were obtained from cells grown to a density of 70-80% without any treatment, or from cells treated with vehicle DMSO or drugs at the given concentrations for 24 hours. For the extract of hepatocytes or liver cancer cells, a lysis buffer (150 mM NaCl, 1% NP-40, 50 mM Tris-HCl, 0.25% sodium deoxycholate, pH 7.4) including a protease inhibitor cocktail (GenDEPOT) was used. In addition, after washing animal liver tissue twice with PBS, SDS, Na3VO4, and protease inhibitor cocktails (GenDEPOT) were added to a lysis buffer [50 mM Tris-HCl, pH 7.4, 1% NP40, 0.25% sodium deoxycholate, 150 mM NaCl, 1 mM EDTA (based on 500 ml)], followed by treatment at 4°C for 15 minutes. […] After quantification using BCA reagent (Thermo Scientific), a 4 × sample buffer [100% glycerol 4 ml, Tris-HCl, pH 6.8, 2.4 ml, SDS 0.8 g, Bromophenol blue 4 mg, betamercaptoethanol 0.4 ml, H2O 3.1 ml (based on 10 ml)] was added, followed by boiling at 100°C for 5 minutes. […]\nAfter 24 hours, vehicle DMSO, drug ST-1-025, or ST-5-002 was treated at the given concentrations. […] (f) After treating NK92-EV or NK92-TM4SF5 cells with DMSO or drugs ST-2-001 (1 nM), ST-3-005 (10 nM or 1 µM), ST-5-001, or ST-5-002 (100 nM or 1 µM) for 24 hours, the expression of SLAMF7 expressed on the cell surface was analyzed through immunostaining using flow cytometry. […]"}
{"molecule": "COc1ccc(-c2cc(-c3ccc(N)cc3)no2)cc1", "note": "[ST-1-025, 4-(5-(4-methoxyphenyl)isoxazole-3-yl)aniline]", "values": [{"measurement": "expression of the stimulatory ligands (MICA/B, SLAMF6, and SLAMF7)", "result": "increased again"}]}
